# In patent US20080305520A9, “Mechanosensitive ion channels and methods of use” (priority 2004, published 2008):
# “Also recorded” adds a separate entry of the source.
# What was measured:
# PC3 cells = assay: PC3 cell migration by time-lapse videomicroscopy; assay type: cell-based, human; conditions: for PC3 cell migration: one hour intervals before, during and after exposure; for reversibility of migration block with washout: up to 1 hour
# Protocol: The effect of the three anti-MscCa agents on PC3 cell migration was tested using time-lapse videomicroscopy to record the trajectory of the migrating prostate tumor cells. Selected video frames were prepared at 15 minute intervals, showing a cluster of 7 PC3 cells as they migrate out from the cluster. […] All three agents blocked cell migration.
# (§1) Time-lapse videomicroscopy and Ca 2-imaging were conducted as follows. Cell migration was monitored by time-lapse videomicroscopy using Nomarski optics with an Epifluorescent microscope (TE 200). The time-lapse images were acquired and saved at 5 minute intervals using Metafluor software. Calcium imaging assays were carried out on cells previously loaded with Fura-2 AM (5 tm for 30 minutes). Time-lapse fluorescence images were consecutively acquired at 340 and 380 wavelengths and transmission (DIC) at intervals of I minute using Metafluor. Data analysis was carried out using Metamorph (Version 6. 1) and Excel] 2000. Conversion of pixels to gm based on a calibrated slide to represent the cell trajectories in the field.
# (§2) The day before transfection cells were seeded at 50-60% density on sterile coverslips in a 6 well plate in culture medium without antibiotic. Transfection of 100 nM of double stranded siRNA Cy3 labeled per well (Ambion #731 1 and negative control, Ambion, Austin, TX was carried using Lipofectamine 2000 (Invitrogen, Carlsbad, CA) according to the manufacturer's instructions for siRNA transfections. Cells were stored in the incubator after the addition of the complexes and 7% FCS medium without antibiotic was added after the first 6 hours of transfection. The next day the supernatant was removed and normal culture medium replaced. Cells were tested by patch clamp and videomicroscopy during the next 48-72 hours, using the patch clamp and videomicroscopy methods described above in examples 4 and 5. […] The foregoing detailed description and examples have been given for clarity of understanding only. No unnecessary limitations are to be understood therefrom. The invention is not limited to the exact details shown and described, for variations obvious to one skilled in the art will be included within the invention defined by the claims.
# MscCa in PC3 cells = biological target: T1, MscCa in PC3 cells (Homo sapiens, UniProt P48995); assay: Cell-attached patch-clamp recording of MscCa activity in PC3 cells; assay type: cell-based
# T1 construct: host or cells: PC3 human prostate tumor cells
# T1 sequence (P48995 whole entry): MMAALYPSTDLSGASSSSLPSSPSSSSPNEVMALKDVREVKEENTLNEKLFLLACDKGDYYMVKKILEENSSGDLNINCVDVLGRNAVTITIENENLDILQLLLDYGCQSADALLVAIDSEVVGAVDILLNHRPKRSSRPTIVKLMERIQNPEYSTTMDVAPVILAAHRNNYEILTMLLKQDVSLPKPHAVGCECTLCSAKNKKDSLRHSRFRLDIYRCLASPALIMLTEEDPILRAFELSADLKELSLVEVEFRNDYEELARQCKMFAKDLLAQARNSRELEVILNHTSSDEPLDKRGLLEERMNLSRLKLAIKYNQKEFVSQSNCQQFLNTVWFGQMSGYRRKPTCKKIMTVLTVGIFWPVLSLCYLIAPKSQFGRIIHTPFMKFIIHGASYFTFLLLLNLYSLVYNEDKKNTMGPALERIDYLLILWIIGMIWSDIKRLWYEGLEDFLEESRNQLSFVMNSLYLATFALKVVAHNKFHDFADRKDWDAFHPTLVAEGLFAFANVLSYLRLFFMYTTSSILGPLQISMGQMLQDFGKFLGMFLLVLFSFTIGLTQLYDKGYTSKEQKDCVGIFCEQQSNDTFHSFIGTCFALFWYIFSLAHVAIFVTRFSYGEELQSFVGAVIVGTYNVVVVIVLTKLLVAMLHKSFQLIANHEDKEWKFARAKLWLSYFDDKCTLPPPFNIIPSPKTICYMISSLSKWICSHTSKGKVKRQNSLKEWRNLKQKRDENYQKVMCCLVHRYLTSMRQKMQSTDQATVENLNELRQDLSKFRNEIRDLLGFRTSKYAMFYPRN
# Protocol: PC3 cell lines were grown in RPM1 1640 medium with 25 mM Hepes and glutamine, supplemented with 7% fetal calf serum, I mM sodium pyruvate, 4.5 g/L glucose, penicillin G (10,000 U/ml) and streptomycin sulfate (10,000 tg/ml) at 37° C. in a humidified 95% 02-5% C02 atmosphere. For patch-lamp studies, cells were seeded at low density on sterile coverslips placed in 33 mm culture dishes and tested during the next 2 - 5 days. Patch clamp recording was conducted as follows. Standard cell-attached patch-clamp recording was used to record single channel currents. The pipettes were made from thin-walled borosilicate glass (World Precision Instruments, Stevenage, UK) with an outside tip diameter of -2 Wm. Immediately prior to patch clamping, a cover slip was removed from the culture dish, glued with dots of silcone to a 35 mm culture, and placed in a microscope stage holder. Cells were visualized with an IM35 Zeiss microscope with fluorescence and Normaski optics. A pressure-clamp (McBride, D.W., Jr. & Hamill, O. P., PflLigers Archiv. 421, 606-612 (1992)) was used to apply pressure and suction protocols to achieve the initial tight seal and stimulate MS channels. […] This voltage-dependent gating of the open channel is also a characteristic of the prototypical MscCa, native to the frog oocyte (Taglietti et al., J. Physiol., 407, 311 (1988)), identified as being formed by the transient receptor channel protein I (TRPCI). The current-voltage relationship of the prostate MscCa measured with a 100 mM K+, zero Ca^2+in the pipette solution indicates an inwardly rectifying single channel conductance (-70 pS chord conductance at -100 mV and 20 pS at 50 mV) (Fig. • SB) that is essentially identical to that of the oocyte MscCa indicating a common pore structure. […] In the “sustained mode” (SM), the channels remained open for the duration of stimulation (Fig. SC), while in the “transient mode” (TM) the channels closed rapidly (cO.5 s) (FIG. 5C). […]
# [1] = system: [Ca^2+]i fluctuations in migrating PC3 cells; assay: Fura-2 Ca2+ imaging of [Ca2+]i fluctuations in migrating PC3 cells; assay type: cell-based, human; conditions: for sustained and transient [Ca^2+]i oscillations: same concentrations that blocked/reduced MscCa activity and PC3 cell migration, 9 cells, 3 experiments
# Protocol: Two distinct types of [Ca^2+]i fluctuations were observed; a sustained Ca^2+)1 that increased from the front of the cell to the rear and was maintained for the duration of the locomotion cycle (up to 3 hours) measured from tether formation to tether release; and a fast transient [Ca2+i wave that spread rapidly through out the cell and lasted <1 minute (the time interval between frames) with an average frequency of 6 waves in 30 minutes. Both sustained and transients [Ca2+]i fluctuations were associated with moving cells. All three anti-MscCa agents described above, abolished both forms of [Ca^2+]i oscillations at the same concentrations that blocked/reduced MscCa activity and PC3 cell migration (9 cells, 3 experiments). Again, whereas with Gd and GsmTx4 the block was reversible, there was no recovery after the anti-TRPCI Ab washout.
# as §1, §2
# prostate tumor cells = conditions: cited from earlier work
# [2] = system: Ca^2+-activated K+channel; assay: Delayed outward channel currents after MscCa activation, PC3 cell-attached patch; assay type: cell-based, human; conditions: 50 nM charybdotoxin in the pipette solution; 1 mM external Ca^2+
# Protocol: PC3 cell lines were grown in RPM1 1640 medium with 25 mM Hepes and glutamine, supplemented with 7% fetal calf serum, I mM sodium pyruvate, 4.5 g/L glucose, penicillin G (10,000 U/ml) and streptomycin sulfate (10,000 tg/ml) at 37° C. in a humidified 95% 02-5% C02 atmosphere. For patch-lamp studies, cells were seeded at low density on sterile coverslips placed in 33 mm culture dishes and tested during the next 2 - 5 days. Patch clamp recording was conducted as follows. Standard cell-attached patch-clamp recording was used to record single channel currents. The pipettes were made from thin-walled borosilicate glass (World Precision Instruments, Stevenage, UK) with an outside tip diameter of -2 Wm. Immediately prior to patch clamping, a cover slip was removed from the culture dish, glued with dots of silcone to a 35 mm culture, and placed in a microscope stage holder. Cells were visualized with an IM35 Zeiss microscope with fluorescence and Normaski optics. […] The current-voltage relationship of the prostate MscCa measured with a 100 mM K+, zero Ca^2+in the pipette solution indicates an inwardly rectifying single channel conductance (-70 pS chord conductance at -100 mV and 20 pS at 50 mV) (Fig. • SB) that is essentially identical to that of the oocyte MscCa indicating a common pore structure. […]
# [3] = system: fish epithelial keratocyte; conditions: Lee et al., Nature 400 (1999), cited from earlier work
# prostate tumor cell = conditions: medium containing serum; Cancer Letters 145 (1999); cited from earlier work
# MscCa = assay: Pressure-clamp cell-attached patch recording of MscCa currents in Xenopus oocytes; assay type: cell-based; conditions: oocyte cell-attached patches; EGTA left out of pipette solution
compound,measurement,setting,value
GCLEFWWKCNPNDDKCCRPKLKCSKLFKLCNFSSG [GsmTx-4],PC3 cell migration,PC3 cells; GsMTx-4 3 μM,blocked
same,reversibility of migration block with washout,PC3 cells,reversible
same,MscCa activity,"MscCa in PC3 cells; 3 μM GsmTx-4 in pipette, SM or TM gating mode",blocked; also recorded: effective in blocking
same,sustained and transient [Ca^2+]i oscillations,[1],abolished
same,reversibility of block of [Ca^2+]i oscillations after washout,[1],reversible
NC1=N[C@H](O)[C@H]2[C@H]3O[C@]4(O)O[C@@H]([C@@H](O)[C@@]2(N1)[C@@H]4O)[C@]3(O)CO [tetrodotoxin],invasiveness,prostate tumor cells,reduce invasiveness
charybdotoxin (QFTNVSCTTSKECWSVCQRLHNTSRGKCMNKKCRCYS),delayed activation of outward channel currents after MscCa inward currents,[2],absent
"[Gd+3] [Gd^3+, gadolinium ion]",Ca^2+ transients,[3],abolishes
same,cell migration,[3]; prevents rear detachment,inhibiting
same,PC3 cell migration,PC3 cells; Gd^3+,blocked
same,reversibility of migration block with washout,PC3 cells,reversible
same,prostate tumor cell motility,prostate tumor cell,enhanced rather than inhibited
same,MscCa activity,"MscCa in PC3 cells; Gd^3+ also included in the pipette-tip solution, 20 out of 20 patches",abolished
same,MscCa patch current (channel block),"MscCa in PC3 cells; Gd^3+ in back solution at 5 µM, -3 minutes after tight seal, pressure steps",block the channel
same,block of native and TRPC1-expressed MscCa,MscCa,equally effective in blocking
same,sustained and transient [Ca^2+]i oscillations,[1],abolished
same,reversibility of block of [Ca^2+]i oscillations after washout,[1],reversible
